# Experimental data published in PubChem BioAssay (NCI).
#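 Compound exposure: 48 hours, 5 concentrations, 96-well plates. Abbreviation: GI50, concentration required for 50% inhibition of growth. The concentration for full growth arrest is given as TGI.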
# Test system: MDA-MB-468 breast
# Experiment: NCI tumour cell line growth inhibition, 48 h
SMILES,GI50 [µM],TGI [µM]
Cc1c(Cl)cccc1NC(=O)c1sc2nc3c(cc2c1N)C(=O)CCC3,0.0453,71.7
COc1c(B(O)O)cccc1-c1nc2ccc3[nH]ncc3c2c2c1CCCC2,1.69,4.94
c1cc(C2CCCCC2)ccc1-c1cnc2nonc2n1,0.316,1.36
C=C1C(=O)O[C@H]2[C@H]1CC/C(COC(=O)CCCCCCCC(=O)OC/C1=C/CC[C@@]3(C)O[C@H]3[C@H]3OC(=O)C(=C)[C@@H]3CC1)=C\CC[C@@]1(C)O[C@@H]21,2.37,6.46
CC(=O)O[C@@H]1C2=C(C)C3(CC3)[C@@](C)(O)C(=O)C2=C[C@@]1(C)CO,0.209,0.591
COc1cc2c(NC3CCN(C(C)C)CC3)nc(C3CCCCC3)nc2cc1OCCCN1CCCC1,1.42,3.17
OC(CN1CCCC2CCCCC21)c1cc2ccccc2c2ccccc12 (stereo not drawn),1.73,3.62
O=C(NCc1ccco1)C1CCN(S(=O)(=O)c2ccc(Cl)cc2)CC1,46,> 100
Cc1nc2sc(C(=O)Nc3ccccc3)c(N)c2cc1C(O)c1ccccc1 (stereo not drawn),0.233,> 65.3
Cc1cc(Cl)nc(N(CCCNc2ccnc3cc(Cl)ccc23)Cc2cccs2)n1,1.04,4.25
Cc1ccc2c(n1)C(=O)C(Cl)=C(Nc1cc(C(F)(F)F)cc(C(F)(F)F)c1)C2=O,2.01,4.57
C(=C\c1ccncc1)/c1ccncc1,> 100,> 100
COCCNCc1ccc(-c2cc3nccc(Oc4ccc(NC(=O)C5(C(=O)Nc6ccc(F)cc6)CC5)cc4F)c3s2)nc1,1.74,3.41
COC(=O)c1c2c(c(C)[n+]([O-])c1C)C(=O)C(NCc1ccc(F)cc1)=CC2=O,0.598,2.15
O=C(N=Nc1c(Cl)c(O)c2ccccc2c1O)C(=O)Nc1cccc(C(F)(F)F)c1,4.16,15.3
COc1cc2c3c(n([C@@H]4CCOC4)c(=O)c2cc1OC)-c1cc2c(cc1C3=O)OCO2,< 0.01,0.0949
Cc1ccc(N=Nc2c(O)ccc3n[nH]nc23)cc1,4.14,49
CCn1cc(C(=O)N/N=C/c2cccs2)c(=O)c2cc(F)c(N3CCNC(C)C3)c(F)c21 (stereo not drawn),1.66,3.27
CC1=NN(c2cccc(Cl)c2)C(=O)/C1=C\C=C\c1ccccc1,1.66,6.14
O=C(NNc1nc2cc(F)cc(F)c2n2cccc12)c1cnccn1,0.331,2.89
CC1=CC(C)(C)Nc2ccc(Cc3ccc4c(c3)C(C)=CC(C)(C)N4)cc21,3.81,16.2
CSc1nnc(-c2cc3c([nH]c4ccccc43)c(-c3cccc(O)c3)n2)n1-c1ccc(C)cc1,3.7,33.7
C[C@H]1COCCN1c1nc(-c2cnc(N)cc2C(F)F)nc(N2CCOCC2)n1,0.108,0.732
COc1cccc(N2CCN(c3ncnc4cc[nH]c34)CC2)c1,0.215,10.2
